According to BindingDB's records for doi:10.1016/j.bmcl.2017.03.037 (Rigel Pharmaceuticals, 2017):

Experiment: Induction of nuclear translocation of human GFP-tagged NFATc1 expressed in virus infected primary human skeletal muscle myoblasts after 3 hrs by DAPI staining based assay

Compound | EC50
COCCn1cc(-c2ccncc2)c2ccncc21 | 6.9 µM
Fc1ccc(Cn2cc(-c3ccncc3)c3ccncc32)cc1 | 7.58 µM
COc1cccc2c(-c3ccnc(N)n3)c[nH]c12 | 9.8 µM
c1cc(-c2cn(CCCN3CCOCC3)c3cnccc23)ccn1 | 6.96 µM
N#Cc1cccc2c(-c3ccnc(N)n3)c[nH]c12 | 21.7 µM
Cc1cc(-c2c[nH]c3cnccc23)ccn1 | 20.8 µM
c1ccc2c(-c3c[nH]c4cnccc34)ccnc2c1 | 43 µM

The next compounds have a lower EC50 than those just listed; values first:

EC50 | Compound
5.31 µM | Clc1cnccc1-c1c[nH]c2cnccc12
4.85 µM | Fc1cc(-c2c[nH]c3cnccc23)ccn1
4.8 µM | Nc1nccc(-c2c[nH]c3cnccc23)n1
2.98 µM | c1cc(-c2c[nH]c3cnccc23)ccn1
2.21 µM | Cn1cc(-c2ccncc2)c2ccncc21
1.59 µM | c1cc(-c2cn(CCC3CC3)c3cnccc23)ccn1
0.31 µM | CC(C)n1cc(-c2ccncc2)c2ccncc21
